# According to patent publication US9174994B2, “Enhanced treatment regimens using mTor inhibitors” (INTELLIKINE LLC, priority 2011, dated 2015):
# Test system: PC3
# Experiment: PC3 proliferation
# Assay type: cell-based
# Settings: Homo sapiens, PC-3; Table 1
row,SMILES,IC50
1,CC(=O)Nc1nc2cc(-c3nn(C(C)C)c4ncnc(N)c34)ccc2o1 [Compound 2],< 1 µM
2,CC(C)n1nc(-c2ccc3onc(N)c3c2)c2c(N)ncnc21 [Compound 10],> 10 µM
3,CC(=O)Nc1noc2cc(-c3nn(C(C)C)c4ncnc(N)c34)ccc12 [Compound 11],> 10 µM
4,CC(C)n1nc(-c2ccc3c(N)noc3c2)c2c(N)ncnc21 [Compound 12],> 10 µM

# Now from value to compound:
row,IC50,SMILES
1,< 10 µM,CC(C)n1nc(-c2ccc3nc(N)oc3c2)c2c(N)ncnc21 [Compound 4]
2,< 0.1 µM,Nc1nc2cc(-c3nn(C4CCOCC4)c4ncnc(N)c34)ccc2o1 [Compound 5]
3,< 1 µM,Nc1nc2cc(-c3nn(C4CCC(N5CCOCC5)CC4)c4ncnc(N)c34)ccc2o1 (stereo not shown) [Compound 6]
4,< 10 µM,CC(=O)N1CCC(n2nc(-c3ccc4oc(N)nc4c3)c3c(N)ncnc32)CC1 [Compound 7]
5,< 0.1 µM,CC(C)n1cc(-c2ccc3oc(N)nc3c2)c2c(N)ncnc21 [Compound 8]
6,< 0.1 µM,Nc1nc2cc(-c3cn(C4CCOCC4)c4ncnc(N)c34)ccc2o1 [Compound 9]
